# Measured values: patent publication US8541588B2, “Sulfonamide derivatives” (Pfizer Limited, priority 2009, dated 2013)
# Molecular target: T1, Nav1.7 (or SCN9A) channel; HEK cells stably transfected with hSCN9A (Homo sapiens, UniProt Q15858)
# T1 construct: expressed in transfected cells
# Test: Nav1.7 block, PatchXpress 7000 automated whole-cell voltage clamp, estimated IC50 (EIC50)
# Assay type: cell-based
# Details: PatchXpress platform; hSCN9A HEK cells held at V1/2 of inactivation; estimated IC50
# T1 sequence (Q15858 whole entry): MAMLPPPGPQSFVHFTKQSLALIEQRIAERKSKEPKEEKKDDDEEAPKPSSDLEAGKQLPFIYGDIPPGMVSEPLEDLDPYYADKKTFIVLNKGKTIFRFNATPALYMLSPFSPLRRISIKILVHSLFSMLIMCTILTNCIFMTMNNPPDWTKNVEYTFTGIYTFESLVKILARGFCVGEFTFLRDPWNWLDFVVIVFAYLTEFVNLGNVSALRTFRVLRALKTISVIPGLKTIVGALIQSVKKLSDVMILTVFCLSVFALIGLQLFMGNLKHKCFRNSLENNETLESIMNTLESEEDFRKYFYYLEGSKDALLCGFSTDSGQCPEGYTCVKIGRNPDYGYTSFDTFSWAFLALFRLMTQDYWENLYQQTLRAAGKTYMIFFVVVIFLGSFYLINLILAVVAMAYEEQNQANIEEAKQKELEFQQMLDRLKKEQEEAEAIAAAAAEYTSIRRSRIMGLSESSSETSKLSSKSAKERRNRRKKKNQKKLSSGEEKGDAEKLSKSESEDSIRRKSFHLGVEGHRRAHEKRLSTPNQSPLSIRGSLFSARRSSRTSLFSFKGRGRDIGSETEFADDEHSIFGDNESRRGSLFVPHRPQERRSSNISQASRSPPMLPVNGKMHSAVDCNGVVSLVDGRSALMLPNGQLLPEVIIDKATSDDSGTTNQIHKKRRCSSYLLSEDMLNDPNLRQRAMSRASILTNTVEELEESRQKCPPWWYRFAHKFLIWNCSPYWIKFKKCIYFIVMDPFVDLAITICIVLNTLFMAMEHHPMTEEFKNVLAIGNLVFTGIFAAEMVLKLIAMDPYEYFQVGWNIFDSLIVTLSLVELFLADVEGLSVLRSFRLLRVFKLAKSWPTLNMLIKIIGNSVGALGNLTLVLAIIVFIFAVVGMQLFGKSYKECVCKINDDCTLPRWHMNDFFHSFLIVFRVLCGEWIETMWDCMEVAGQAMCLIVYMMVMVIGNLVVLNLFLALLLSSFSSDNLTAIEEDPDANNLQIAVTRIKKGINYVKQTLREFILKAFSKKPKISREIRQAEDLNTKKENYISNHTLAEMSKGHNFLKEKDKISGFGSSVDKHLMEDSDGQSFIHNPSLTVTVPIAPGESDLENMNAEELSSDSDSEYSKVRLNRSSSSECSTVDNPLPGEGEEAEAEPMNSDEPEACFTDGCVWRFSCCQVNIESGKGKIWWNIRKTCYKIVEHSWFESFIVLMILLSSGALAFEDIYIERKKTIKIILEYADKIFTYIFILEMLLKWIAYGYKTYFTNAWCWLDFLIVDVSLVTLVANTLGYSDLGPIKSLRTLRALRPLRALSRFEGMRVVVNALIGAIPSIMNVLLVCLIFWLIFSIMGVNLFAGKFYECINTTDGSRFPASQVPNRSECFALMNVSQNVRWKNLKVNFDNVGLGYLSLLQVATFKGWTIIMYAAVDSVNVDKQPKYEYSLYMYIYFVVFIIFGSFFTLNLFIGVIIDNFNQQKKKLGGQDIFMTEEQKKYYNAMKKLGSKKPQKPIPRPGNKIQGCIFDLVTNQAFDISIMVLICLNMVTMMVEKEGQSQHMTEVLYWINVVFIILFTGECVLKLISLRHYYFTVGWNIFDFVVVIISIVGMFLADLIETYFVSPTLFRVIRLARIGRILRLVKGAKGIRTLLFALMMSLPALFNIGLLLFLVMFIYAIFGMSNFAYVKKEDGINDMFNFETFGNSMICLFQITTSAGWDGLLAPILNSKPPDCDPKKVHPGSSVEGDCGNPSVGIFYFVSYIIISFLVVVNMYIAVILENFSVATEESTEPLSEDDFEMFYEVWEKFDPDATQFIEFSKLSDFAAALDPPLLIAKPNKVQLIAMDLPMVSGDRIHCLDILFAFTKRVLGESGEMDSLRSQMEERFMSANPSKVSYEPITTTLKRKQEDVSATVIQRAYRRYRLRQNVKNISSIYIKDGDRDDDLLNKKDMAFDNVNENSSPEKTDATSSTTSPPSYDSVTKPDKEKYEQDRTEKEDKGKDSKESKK
row,IC50 [nM],SMILES
1,30440,"Cc1cccc(-c2cc(F)cc(F)c2)c1Oc1ccc(S(=O)(=O)Nc2ncns2)cc1C#N [Example 45, 3-cyano-4-[(3′,5′-difluoro-3-methylbiphenyl-2-yl)oxy]-N-1,2,4-thiadiazol-5-ylbenzenesulfonamide]"
2,900,"COc1ccc(-c2ccccc2Oc2ccc(S(=O)(=O)Nc3ncns3)cc2C#N)cc1F [Example 48, 3-cyano-4-[(3′-fluoro-4′-methoxybiphenyl-2-yl)oxy]-N-1,2,4-thiadiazol-5-ylbenzenesulfonamide]"
3,15500,"Cc1cccc(-c2cccc(F)c2)c1Oc1ccc(S(=O)(=O)Nc2ncns2)cc1C#N [Example 38, 3-cyano-4-[(3′-fluoro-3-methylbiphenyl-2-yl)oxy]-N-1,2,4-thiadiazol-5-ylbenzenesulfonamide]"
4,30,"Cn1ncc(F)c1-c1cc(Cl)ccc1Oc1ccc(S(=O)(=O)Nc2nccs2)cc1C#N [Example 196, 4-[4-Chloro-2-(4-fluoro-2-methyl-2H-pyrazol-3-yl)-phenoxy]-3-cyano-N-thiazol-2-yl-benzenesulfonamide]"
5,23000,"O=S(=O)(Nc1nccs1)c1ccc(Oc2ccc(CN3CCC3)c(F)c2)c(F)c1 [Example 125, 4-[4-(azetidin-1-ylmethyl)-3-fluorophenoxy]-3-fluoro-N-1,3-thiazol-2-ylbenzenesulfonamide]"
6,2980,"Cc1ccc(Oc2ccc(S(=O)(=O)Nc3ncns3)cc2C#N)c(-c2nn(C)cc2C)c1 [Example 28, 3-cyano-4-(2-(1,4-dimethyl-1H-pyrazol-3-yl)-4-methylphenoxy)-N-(1,2,4-thiadiazol-5-yl)benzenesulfonamide]"
7,>10000,"N#Cc1cc(S(=O)(=O)Nc2cc(C(F)(F)F)ncn2)ccc1Oc1ccccc1-c1ccccc1 [Example 115, 4-(biphenyl-2-yloxy)-3-cyano-N-[6-(trifluoromethyl)pyrimidin-4-yl]benzenesulfonamide]"
8,2450,"CC(C)(C)n1nccc1-c1c(F)cccc1Oc1ccc(S(=O)(=O)Nc2ncns2)cc1C#N [Example 83, 4-[2-(1-tert-butyl-1H-pyrazol-5-yl)-3-fluorophenoxy]-3-cyano-N-1,2,4-thiadiazol-5-ylbenzenesulfonamide]"
9,18400,"Cc1nn(C)c(C)c1Cc1ccc(Oc2ccc(S(=O)(=O)Nc3nccs3)cc2F)cc1 [Example 118, 3-fluoro-N-1,3-thiazol-2-yl-4-{4-[(1,3,5-trimethyl-1H-pyrazol-4-yl)methyl]phenoxy}benzenesulfonamide]"
10,2170,"O=S(=O)(Nc1cscn1)c1ccc(Oc2ccc(-c3ccccc3)cc2)c(F)c1 [Example 273, 4-(biphenyl-4-yloxy)-3-fluoro-N-thiazol-4-yl-benzenesulfonamide]"
11,780,"Cn1cc(-c2ccc(Cl)cc2)c(Oc2ccc(S(=O)(=O)Nc3ncns3)cc2C#N)n1 [Example 64, 4-{[4-(4-chlorophenyl)-1-methyl-1H-pyrazol-3-yl]oxy}-3-cyano-N-1,2,4-thiadiazol-5-ylbenzenesulfonamide]"
12,450,"CCOC(=O)Cn1nccc1-c1cc(F)ccc1Oc1ccc(S(=O)(=O)Nc2nccs2)cc1F [Example 221, ethyl 2-(5-(5-fluoro-2-(2-fluoro-4-(N-thiazol-2-ylsulfamoyl)phenoxy)phenyl)-1H-pyrazol-1-yl)acetate]"

row,SMILES,IC50 [nM]
1,"N#Cc1cc(S(=O)(=O)Nc2nccs2)ccc1Oc1ccc(Cl)cc1-c1ccccn1 [Example 164, 4-(4-chloro-2-pyridin-2-ylphenoxy)-3-cyano-N-1,3-thiazol-2-ylbenzenesulfonamide]",580

# Same assay, conditions: estimated IC50; hSCN9A HEK cells, PatchXpress platform; Examples 283-814
row,IC50 [nM],SMILES
1,17,"Cn1nccc1-c1cc(C(F)(F)F)ccc1Oc1ccc(S(=O)(=O)Nc2nccs2)cc1C#N [Example 440, 3-cyano-4-[2-(1-methyl-1H-pyrazol-5-yl)-4-(trifluoromethyl)phenoxy]-N-1,3-thiazol-2-ylbenzenesulfonamide]"
2,1.4,"N#Cc1cc(S(=O)(=O)Nc2nccs2)ccc1Oc1ccc(Br)cc1-c1cn[nH]c1 [Example 697, 4-[4-Bromo-2-(1H-pyrazol-4-yl)phenoxy]-3-cyano-N-1,3-thiazol-2-ylbenzenesulfonamide]"
3,54000,"Cc1nn(C)c(C)c1Cc1ccc(Oc2ccc(S(=O)(=O)Nc3ccc(F)cn3)cc2C#N)cc1 [Example 565, 3-cyano-N-(5-fluoropyridin-2-yl)-4-{4-[(1,3,5-trimethyl-1H-pyrazol-4-yl)methyl]phenoxy}benzenesulfonamide]"
4,470,"N#Cc1cc(S(=O)(=O)Nc2nccs2)ccc1Oc1ccc(-n2ccc(C(F)(F)F)n2)c(F)c1 [Example 381, 3-cyano-4-{3-fluoro-4-[3-(trifluoromethyl)-1H-pyrazol-1-yl]phenoxy}-N-1,3-thiazol-2-ylbenzenesulfonamide]"
5,4300,"N#Cc1cc(S(=O)(=O)Nc2ncc(F)cn2)ccc1Oc1ccccc1-c1ccccc1 [Example 427, 4-(biphenyl-2-yloxy)-3-cyano-N-(5-fluoropyrimidin-2-yl)benzenesulfonamide]"
6,2100,"CC(C)(C)n1cc(Cc2cccc(Oc3ccc(S(=O)(=O)Nc4cscn4)cc3C#N)c2)cn1 [Example 419, 4-{3-[(1-tert-butyl-1H-pyrazol-4-yl)methyl]phenoxy}-3-cyano-N-1,3-thiazol-4-ylbenzenesulfonamide]"
7,1300,"Cn1nccc1-c1cc(Cl)ccc1Oc1ccc(S(=O)(=O)Nc2ccccn2)cc1C#N [Example 442, 4-[4-chloro-2-(1-methyl-1H-pyrazol-5-yl)phenoxy]-3-cyano-N-pyridin-2-ylbenzenesulfonamide]"
8,300,"CCn1nc(C(F)(F)F)cc1-c1ccc(Oc2ccc(S(=O)(=O)Nc3nccs3)cc2F)cc1 [Example 408, 4-{4-[1-ethyl-3-(trifluoromethyl)-1H-pyrazol-5-yl]phenoxy}-3-fluoro-N-1,3-thiazol-2-ylbenzenesulfonamide]"
9,1200,"CCn1nc(C(F)(F)F)cc1-c1ccc(Oc2cc(F)c(S(=O)(=O)Nc3ccc(F)cn3)cc2Cl)cc1 [Example 404, 5-chloro-4-{4-[1-ethyl-3-(trifluoromethyl)-1H-pyrazol-5-yl]phenoxy}-2-fluoro-N-(5-fluoropyridin-2-yl)benzenesulfonamide]"
10,49,"O=S(=O)(Nc1cscn1)c1cc(Cl)c(Oc2ccc(Cl)cc2C2CCNCC2)cc1F [Example 655, 5-chloro-4-(4-chloro-2-piperidin-4-ylphenoxy)-2-fluoro-N-1,3-thiazol-4-ylbenzenesulfonamide]"
11,690,"O=S(=O)(Nc1cscn1)c1ccc(Oc2ccc(Cl)cc2-c2cn[nH]c2)c(Cl)c1 [Example 673, 3-chloro-4-[4-chloro-2-(1H-pyrazol-4-yl)phenoxy]-N-1,3-thiazol-4-ylbenzenesulfonamide]"

# Same assay, conditions: estimated IC50; hSCN9A HEK cells, PatchXpress platform; Examples 815-1040
row,IC50 [nM],SMILES
1,4.1,"N#Cc1cc(S(=O)(=O)Nc2ncns2)ccc1Oc1ccc(Cl)cc1-c1ccnc(OC2CCC2)c1 [Example 1025, 4-{4-Chloro-2-[2-(cyclobutyloxy)pyridin-4-yl]phenoxy}-3-cyano-N-1,2,4-thiadiazol-5-ylbenzenesulfonamide]"
2,420,"N#Cc1cc(S(=O)(=O)Nc2nncs2)ccc1Oc1ccc(Cl)cc1-c1ccnnc1 [Example 832, 4-(4-chloro-2-pyridazin-4-ylphenoxy)-3-cyano-N-1,3,4-thiadiazol-2-ylbenzenesulfonamide]"
3,27,"N#Cc1cc(S(=O)(=O)Nc2ncns2)ccc1Oc1ccc(Cl)cc1-c1cnco1 [Example 967, 4-[4-chloro-2-(1,3-oxazol-5-yl)phenoxy]-3-cyano-N-1,2,4-thiadiazol-5-ylbenzenesulfonamide]"
4,3300,"N#Cc1cc(S(=O)(=O)Nc2ncns2)ccc1Oc1ccc(Cl)cc1-c1ccc(C(=O)O)cc1 [Example 999, 5′-chloro-2′-{2-cyano-4-[(1,2,4-thiadiazol-5-ylamino)sulfonyl]phenoxy}biphenyl-4-carboxylic acid]"
5,560,"CCOc1n[nH]cc1-c1cc(Cl)ccc1Oc1cc(F)c(S(=O)(=O)Nc2cscn2)cc1F [Example 984, 4-[4-chloro-2-(3-ethoxy-1H-pyrazol-4-yl)phenoxy]-2,5-difluoro-N-1,3-thiazol-4-ylbenzenesulfonamide]"
6,8,"O=S(=O)(Nc1ncns1)c1cc(F)c(Oc2cc(F)c(Cl)cc2-c2ccnnc2)cc1F [Example 936, 4-(4-chloro-5-fluoro-2-pyridazin-4-ylphenoxy)-2,5-difluoro-N-1,2,4-thiadiazol-5-ylbenzenesulfonamide]"
7,21,"Cc1ncccc1-c1cc(Cl)ccc1Oc1ccc(S(=O)(=O)Nc2ncns2)cc1C#N [Example 1009, 4-[4-chloro-2-(2-methylpyridin-3-yl)phenoxy]-3-cyano-N-1,2,4-thiadiazol-5-ylbenzenesulfonamide]"
8,4.1,"N#Cc1cc(S(=O)(=O)Nc2cscn2)ccc1Oc1ccc(C(F)(F)F)cc1-c1ccnn1C1CNC1 [Example 969, 4-[2-(1-azetidin-3-yl-1H-pyrazol-5-yl)-4-(trifluoromethyl)phenoxy]-3-cyano-N-1,3-thiazol-4-ylbenzenesulfonamide]"
9,3.1,"Cc1[nH]ncc1-c1cc(Cl)c(F)cc1Oc1ccc(S(=O)(=O)Nc2ncns2)cc1C#N [Example 863, 4-[4-chloro-5-fluoro-2-(5-methyl-1H-pyrazol-4-yl)phenoxy]-3-cyano-N-1,2,4-thiadiazol-5-ylbenzenesulfonamide]"
10,25,"O=S(=O)(Nc1nncs1)c1cc(Cl)c(Oc2cc(OC(F)(F)F)c(F)cc2-c2ccnnc2)cc1F [Example 965, 5-chloro-2-fluoro-4-[4-fluoro-2-pyridazin-4-yl-5-(trifluoromethoxy)phenoxy]-N-1,3,4-thiadiazol-2-ylbenzenesulfonamide]"
11,5.1,"CCN1CC(n2nccc2-c2cc(F)ccc2Oc2cc(F)c(S(=O)(=O)Nc3ncns3)cc2Cl)C1 [Example 848, 5-chloro-4-{2-[1-(1-ethylazetidin-3-yl)-1H-pyrazol-5-yl]-4-fluorophenoxy}-2-fluoro-N-1,2,4-thiadiazol-5-ylbenzenesulfonamide]"
12,22,"N#Cc1cc(S(=O)(=O)Nc2ncns2)ccc1Oc1cc(OC(F)(F)F)ccc1-c1ccnnc1 [Example 957, 3-cyano-4-[2-pyridazin-4-yl-5-(trifluoromethoxy)phenoxy]-N-1,2,4-thiadiazol-5-ylbenzenesulfonamide]"
